Counter-ions that a name gives are not always drawn.
Target: T1, Human ATX protein (Homo sapiens, UniProt Q13822)
T1 construct: made in house
Assay: ATX biochemical assay (FRET, FS-3 substrate)
Settings: FRET assay, FS-3 2 μM, ATX 1.0 μg/mL, 30 minutes preincubation, 2 hours reaction at room temperature; read-out: IC50
How it was run: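 In-house human ATX (1.0 μg/mL final) was preincubated with compound for 30 min at room temperature in Tris buffer pH 7.4 with 1 mg/mL fatty acid free-BSA. FS-3 substrate (2 μM final) was then hydrolysed for 2 hours at room temperature, protected from light, and read as fluorescence at ex 485/em 538 nm.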

IC50, ≤ 100 nM:
O=C(C[C@H]1CC[C@@H](N2CC(F)(F)C2)CC1)N1CCc2c(C(F)(F)F)nn(Cc3ccc(F)cc3)c2C1 [Example 22-7, 2-(cis-4-(3,3-Difluoroazetidin-1-yl)cyclohexyl)-1-(1-(4-fluorobenzyl)-3-(trifluoromethyl)-4,5-dihydro-1H-pyrazolo[3,4-c]pyridin-6(7H)-yl)ethanone TFA salt]
O=C(C[C@H]1CC[C@H](N2CC(F)(F)C2)CC1)N1CCc2c(C(F)(F)F)nn(Cc3ccc(F)cc3)c2C1 [Example 22-8, 2-(trans-4-(3,3-difluoroazetidin-1-yl)cyclohexyl)-1-(1-(4-fluorobenzyl)-3-(trifluoromethyl)-4,5-dihydro-1H-pyrazolo[3,4-c]pyridin-6(7H)-yl)ethanone TFA salt]
O=C(CC1CCC(N2CCCC2)CC1)N1CCc2c(C(F)(F)F)nn(Cc3ccc(F)cc3)c2C1 (stereo not shown) [Example 22-9, 1-(1-(4-Fluorobenzyl)-3-(trifluoromethyl)-4,5-dihydro-1H-pyrazolo[3,4-c]pyridin-6(7H)-yl)-2-(4-(pyrrolidin-1-yl)cyclohexyl)ethanone TFA salt]
O=C(CC1CCC(N2CCOCC2)CC1)N1CCc2c(C(F)(F)F)nn(Cc3ccc(F)cc3)c2C1 (stereo not shown) [Example 22-10, 1-(1-(4-Fluorobenzyl)-3-(trifluoromethyl)-4,5-dihydro-1H-pyrazolo[3,4-c]pyridin-6(7H)-yl)-2-(4-morpholinocyclohexyl)ethanone TFA salt]

Reference: patent publication US10144732B2 (BIOGEN MA INC., priority 2014, dated 2018)
